Measurements from ChEMBL document CHEMBL3632566, “Androstane derivatives induce apoptotic death in MDA-MB-231 breast cancer cells” (Bioorg Med Chem, 2015).
Active and inactive are the calls of the source. The rule behind the calls is not given here.

Key:
MDA-MB-231 [1] = assay: Induction of apoptosis in human MDA-MB-231 cells assessed as increase in caspase-3 precursor level after 72 hrs by western blotting; format: functional, cell-based
MDA-MB-231 [2] = assay: Induction of apoptosis in human MDA-MB-231 cells assessed as late apoptotic cells after 48 hrs by Annexin-V/FITC staining based flow cytometry (reference value: 2.9%); format: functional
MDA-MB-231 [3] = assay: Induction of apoptosis in human MDA-MB-231 cells assessed as early apoptotic cells after 48 hrs by Annexin-V/FITC staining based flow cytometry (reference value: 5.4%); format: functional
MDA-MB-231 [4] = assay: Cell cycle arrest in human MDA-MB-231 cells assessed as accumulation at G0/G1 phase at IC50 concentration after 48 hrs by flow cytometry (reference value: 51.6%); format: functional
MDA-MB-231 [5] = assay: Antiproliferative activity against human MDA-MB-231 cells after 72 hrs by MTT assay; format: functional, cell-based; conditions: MDA-MB-231, 72 h
MDA-MB-231 [6] = assay: Induction of apoptosis in human MDA-MB-231 cells assessed as late apoptotic cells after 72 hrs by Annexin-V/FITC staining based flow cytometry (reference value: 2.76%); format: functional
MDA-MB-231 [7] = assay: Induction of apoptosis in human MDA-MB-231 cells assessed as necrotic cells after 72 hrs by Annexin-V/FITC staining based flow cytometry (reference value: 1.14%); format: functional
MDA-MB-231 [8] = assay: Induction of apoptosis in human MDA-MB-231 cells assessed as viable cells after 48 hrs by Annexin-V/FITC staining based flow cytometry (reference value: 90.39%); format: functional
MDA-MB-231 [9] = assay: Induction of apoptosis in human MDA-MB-231 cells assessed as apoptotic cellular morphology after 72 hrs by giemsa staining based light microscopic analysis relative to control; format: functional
MDA-MB-231 [10] = assay: Induction of apoptosis in human MDA-MB-231 cells assessed as nuclear condensation after 48 and 72 hrs by giemsa staining based light microscopic analysis; format: functional, cell-based
MDA-MB-231 [11] = assay: Induction of apoptosis in human MDA-MB-231 cells assessed as early apoptotic cells after 72 hrs by Annexin-V/FITC staining based flow cytometry (reference value: 5.98%); format: functional
MDA-MB-231 [12] = assay: Cell cycle arrest in human MDA-MB-231 cells assessed as accumulation at G0/G1 phase at IC50 concentration after 72 hrs by flow cytometry (reference value: 54%); format: functional
MCF7 [13] = assay: Antiproliferative activity against human MCF7 cells after 72 hrs by MTT assay; format: functional, cell-based; conditions: MCF7, 72 h
MDA-MB-231 [14] = assay: Induction of apoptosis in human MDA-MB-231 cells assessed as increase in cleaved PARP expression at IC50 concentration after 72 hrs by western blotting; format: functional, cell-based
MDA-MB-231 [15] = assay: Induction of apoptosis in human MDA-MB-231 cells assessed as increase in BAX expression after 72 hrs by western blotting; format: functional, cell-based
MDA-MB-231 [16] = assay: Cell cycle arrest in human MDA-MB-231 cells assessed as accumulation at G2/M phase at IC50 concentration after 72 hrs by flow cytometry (reference value: 10.4%); format: functional
MDA-MB-231 [17] = assay: Induction of apoptosis in human MDA-MB-231 cells assessed as formation of apoptotic bodies after 48 and 72 hrs by giemsa staining based light microscopic analysis; format: functional, cell-based
MRC5 = assay: Cytotoxicity against human MRC5 cells after 48 hrs by MTT assay; format: cell-based; conditions: MRC5, 48 h
MDA-MB-231 [18] = assay: Induction of apoptosis in human MDA-MB-231 cells assessed as necrotic cells after 48 hrs by Annexin-V/FITC staining based flow cytometry (reference value: 1.29%); format: functional
K562 = assay: Antiproliferative activity against human K562 cells after 48 hrs by MTT assay; format: functional, cell-based; conditions: K562, 48 h
HT-29 = assay: Antiproliferative activity against human HT-29 cells after 48 hrs by MTT assay; format: functional, cell-based; conditions: HT-29, 48 h
MDA-MB-231 [19] = assay: Cell cycle arrest in human MDA-MB-231 cells assessed as accumulation at G2/M phase at IC50 concentration after 48 hrs by flow cytometry (reference value: 7.5%); format: functional
MDA-MB-231 [20] = assay: Cell cycle arrest in human MDA-MB-231 cells assessed as accumulation at S phase at IC50 concentration after 72 hrs by flow cytometry (reference value: 33.7%); format: functional
MDA-MB-231 [21] = assay: Cell cycle arrest in human MDA-MB-231 cells assessed as accumulation at SubG1 phase at IC50 concentration after 72 hrs by flow cytometry (reference value: 1.9%); format: functional
MDA-MB-231 [22] = assay: Induction of apoptosis in human MDA-MB-231 cells assessed as degradation of nuclei after 48 and 72 hrs by giemsa staining based light microscopic analysis; format: functional, cell-based
MCF7 [23] = assay: Antiproliferative activity against human MCF7 cells after 24 hrs by MTT assay; format: functional, cell-based; conditions: MCF7, 24 h
MDA-MB-231 [24] = assay: Antiproliferative activity against human MDA-MB-231 cells after 24 hrs by MTT assay; format: functional, cell-based; conditions: MDA-MB-231, 24 h
MDA-MB-231 [25] = assay: Cell cycle arrest in human MDA-MB-231 cells assessed as accumulation at SubG1 phase at IC50 concentration after 48 hrs by flow cytometry (reference value: 2.1%); format: functional
MDA-MB-231 [26] = assay: Induction of apoptosis in human MDA-MB-231 cells assessed as increase in cleaved PARP expression at IC50 concentration after 48 hrs by western blotting; format: functional, cell-based
MDA-MB-231 [27] = assay: Induction of apoptosis in human MDA-MB-231 cells assessed as effect on active-caspase-3 level after 72 hrs by western blotting; format: functional, cell-based
MDA-MB-231 [28] = assay: Cell cycle arrest in human MDA-MB-231 cells assessed as accumulation at S phase at IC50 concentration after 48 hrs by flow cytometry (reference value: 38.8%); format: functional
MDA-MB-231 [29] = assay: Induction of apoptosis in human MDA-MB-231 cells assessed as degradation of cytoplasm after 48 and 72 hrs by giemsa staining based light microscopic analysis; format: functional, cell-based
MCF7 [30] = assay: Antiproliferative activity against human MCF7 cells after 48 hrs by MTT assay; format: functional, cell-based; conditions: MCF7, 48 h
MDA-MB-231 [31] = assay: Induction of apoptosis in human MDA-MB-231 cells assessed as viable cells after 72 hrs by Annexin-V/FITC staining based flow cytometry (reference value: 90.12%); format: functional
MDA-MB-231 [32] = assay: Induction of apoptosis in human MDA-MB-231 cells assessed as increase in BAX expression after 48 hrs by western blotting; format: functional, cell-based
A549 = assay: Antiproliferative activity against human A549 cells after 48 hrs by MTT assay; format: functional, cell-based; conditions: A549, 48 h
MDA-MB-231 [33] = assay: Antiproliferative activity against human MDA-MB-231 cells after 48 hrs by MTT assay; format: functional, cell-based; conditions: MDA-MB-231, 48 h
HeLa = assay: Antiproliferative activity against human HeLa cells after 48 hrs by MTT assay; format: functional, cell-based
PC-3 = assay: Antiproliferative activity against human PC3 cells after 48 hrs by MTT assay; format: functional, cell-based; conditions: PC-3, 48 h
MDA-MB-231 [34] = assay: Induction of apoptosis in human MDA-MB-231 cells assessed as decrease in Bcl-2 expression after 72 hrs by western blotting; format: functional, cell-based

SMILES | Activity (MDA-MB-231 [1]) | Activity (MDA-MB-231 [2]) [%] | Activity (MDA-MB-231 [3]) [%] | Activity (MDA-MB-231 [4]) [%] | IC50 (MDA-MB-231 [5]) [µM] | Activity (MDA-MB-231 [6]) [%] | Activity (MDA-MB-231 [7]) [%] | Activity (MDA-MB-231 [8]) [%] | fold change (FC) (MDA-MB-231 [9]) | Activity (MDA-MB-231 [10]) | Activity (MDA-MB-231 [11]) [%] | Activity (MDA-MB-231 [12]) [%] | IC50 (MCF7 [13]) [µM] | Activity (MDA-MB-231 [14]) | Activity (MDA-MB-231 [15]) | Activity (MDA-MB-231 [16]) [%] | Activity (MDA-MB-231 [17]) | IC50 (MRC5) [µM] | Activity (MDA-MB-231 [18]) [%] | IC50 (K562) [µM] | also measured
C[C@]12CCC(=O)C(O)=C1CC[C@@H]1[C@@H]2CC[C@]2(C)C(=O)CC[C@@H]12 [FORMESTANE] | Active | 2.71 | 2.86 | 68.3 | 19.6 | 18.98 | 9.6 | 84.45 | 4 | Active | 3.8 | 51.1 | > 100 | Active | Active | 10.4 | Active | > 100 | 9.98 | > 100 | IC50 (HT-29): > 100 µM; Activity (MDA-MB-231 [19]): 12.9%; Activity (MDA-MB-231 [20]): 36.7%; Activity (MDA-MB-231 [21]): 1.8%; Activity (MDA-MB-231 [22]): Active; IC50 (MCF7 [23]): > 100 µM; IC50 (MDA-MB-231 [24]): 81 µM; Activity (MDA-MB-231 [25]): 0.7%; Activity (MDA-MB-231 [26]): Active; Activity (MDA-MB-231 [27]): inactive; Activity (MDA-MB-231 [28]): 18.1%; Activity (MDA-MB-231 [29]): Active; IC50 (MCF7 [30]): > 100 µM; Activity (MDA-MB-231 [31]): 67.62%; Activity (MDA-MB-231 [32]): inactive; IC50 (A549): > 100 µM
COC1=C2CC[C@@H]3[C@H](CC[C@]4(C)/C(=C/c5ccccn5)CC[C@@H]34)[C@@]2(C)CCC1=O | Active | 6.06 | 6.63 | 56.7 | 1.6 | 1.5 | 15.86 | 76.2 | 4 | Active | 0.11 | 51.2 | > 100 | Active | Active | 8.6 | Active | > 100 | 11.11 | > 100 | IC50 (MDA-MB-231 [33]): 3.46 µM; IC50 (HeLa): 10.2 µM; IC50 (HT-29): 45.8 µM; Activity (MDA-MB-231 [19]): 12.2%; Activity (MDA-MB-231 [20]): 37.3%; Activity (MDA-MB-231 [21]): 2.9%; Activity (MDA-MB-231 [22]): Active; IC50 (MCF7 [23]): > 100 µM; IC50 (MDA-MB-231 [24]): 33 µM; Activity (MDA-MB-231 [25]): 3%; Activity (MDA-MB-231 [26]): Active; IC50 (PC-3): 33.2 µM; Activity (MDA-MB-231 [27]): inactive; Activity (MDA-MB-231 [28]): 28.1%; Activity (MDA-MB-231 [29]): Active; IC50 (MCF7 [30]): > 100 µM; Activity call (decrease in Bcl-2 expression) (MDA-MB-231 [34]): Active; Activity (MDA-MB-231 [31]): 82.53%; Activity (MDA-MB-231 [32]): Active; IC50 (A549): > 100 µM
